From patent US4436733A, “4"- And 3-ester derivatives of DMT and DMOT” (Eli Lilly and Company, priority 1982, dated 1984)
Read-outs that look alike come from different tables or passages of the source.

Assays:
[1] = tested on: Streptococcus pyogenes C203; experiment: experimental bacterial infection in mice, ED50; format: in vivo; conditions: doses given 1 and 5 hours postinfection, read-out: ED50 (effective dose to protect 50% of the test animals)
Procedure: The ester derivatives of this invention have shown in vivo antimicrobial activity against experimental bacterial infections caused by gram-positivebacteria. When two doses of test compound were administered to mice with experimental infections, the activity observed was measured as an ED50 value [effective dose in mg/kg to protect 50% of the test animals: see Warren Wick, et al., J. Bacteriol. 81, 233-235 (1961)].
^a mg/kg × 2; doses given 1 and 5 hours postinfection

[2] = tested on: Staphylococcus aureus V41; experiment: standard agar-dilution assay, MIC; format: cell-based; conditions: Staphylococcus aureus V41, penicillin resistant strain
Procedure: (§1) The MIC's in Table III were determined by standard agar-dilutionassays. The MIC's in Table IV were obtained using a conventional broth-dilution microtiter test.
^b Penicillinresistant strain

Mycoplasma hyorhinis = experiment: conventional broth-dilution microtiter test, MIC; format: cell-based
Procedure: as §1

Mycoplasma synoviae = experiment: conventional broth-dilution microtiter test, MIC; format: cell-based
Procedure: as §1

Staphylococcus aureus = experiment: conventional broth-dilution microtiter test, MIC; format: cell-based
Procedure: as §1

Mycoplasma gallisepticum = experiment: conventional broth-dilution microtiter test, MIC; format: cell-based
Procedure: as §1

[3] = tested on: Pasteurella multocida 17E; experiment: conventional broth-dilution microtiter test, MIC; format: cell-based; conditions: bovine isolate
Procedure: as §1

[4] = tested on: Pasteurella multocida 60A; experiment: conventional broth-dilution microtiter test, MIC; format: cell-based; conditions: avian isolate
Procedure: as §1

Streptococcus sp. 80 = experiment: conventional broth-dilution microtiter test, MIC; format: cell-based
Procedure: as §1

[5] = tested on: Streptococcus pyogenes C203; experiment: standard agar-dilution assay, MIC; format: cell-based
Procedure: as §1

[6] = tested on: Staphylococcus epidermidis EPI2; experiment: standard agar-dilution assay, MIC; format: cell-based
Procedure: as §1

[7] = tested on: Staphylococcus aureus X1.1; experiment: standard agar-dilution assay, MIC; format: cell-based
Procedure: as §1

[8] = tested on: Streptococcus pneumoniae Park I; experiment: standard agar-dilution assay, MIC; format: cell-based
Procedure: as §1

[9] = tested on: Staphylococcus epidermidis EPI1; experiment: standard agar-dilution assay, MIC; format: cell-based
Procedure: as §1

[10] = tested on: Streptococcus Group D X66; experiment: standard agar-dilution assay, MIC; format: cell-based
Procedure: as §1

Streptococcus Group 9960 = experiment: standard agar-dilution assay, MIC; format: cell-based
Procedure: as §1

[11] = tested on: Staphylococcus aureus S13E; experiment: standard agar-dilution assay, MIC; format: cell-based
Procedure: as §1

[12] = tested on: Staphylococcus aureus X400; experiment: standard agar-dilution assay, MIC; format: cell-based; conditions: Staphylococcus aureus X400, methicillin resistant strain
Procedure: as §1
^c Methicillinresistant-strain

[13] = tested on: Haemophilus influenzae R252; experiment: standard agar-dilution assay, MIC; format: cell-based; conditions: Haemophilus influenzae R252, ampicillin resistant strain
Procedure: as §1
^e Ampicillinresistant strain

[14] = tested on: Haemophilus influenzae Holt; experiment: standard agar-dilution assay, MIC; format: cell-based; conditions: ampicillin sensitive strain
Procedure: as §1
^d Ampicillinsensitive strain

SMILES	ED50 ([1]; C203, mice, oral) [mg/kg]	ED50 ([1]; C203, sc, mice, subcutaneous) [mg/kg]	MIC (minimal inhibitory concentration) [2]	MIC (minimal inhibitory concentration) (Mycoplasma hyorhinis)	MIC (minimal inhibitory concentration) (Mycoplasma synoviae)	MIC (minimal inhibitory concentration) (Staphylococcus aureus)	MIC (minimal inhibitory concentration) (Mycoplasma gallisepticum)	MIC (minimal inhibitory concentration) [3]	MIC (minimal inhibitory concentration) [4]	MIC (minimal inhibitory concentration) (Streptococcus sp. 80)	MIC (minimal inhibitory concentration) [5]	MIC (minimal inhibitory concentration) [6]	MIC (minimal inhibitory concentration) [7]	MIC (minimal inhibitory concentration) [8]	MIC (minimal inhibitory concentration) [9]	MIC (minimal inhibitory concentration) [10]	MIC (minimal inhibitory concentration) (Streptococcus Group 9960)	MIC (minimal inhibitory concentration) [11]	MIC (minimal inhibitory concentration) [12]	MIC (minimal inhibitory concentration) [13]	further results
CCC(=O)OCC1C=C(C)C=CC(=O)C(C)CC(CC=O)C(OC2OC(C)C(OC3CC(C)(O)C(OC(=O)CC)C(C)O3)C(N(C)C)C2O)C(C)C(O)CC(=O)OC1CC (stereo not shown) [Compound 4, 23,4"-Di-O-Propionyl-DMT]	> 150	12	1	0.78	0.39	0.78	0.195	12.5	25	1.56	0.25	1	0.5	0.06	0.5	1	0.5	0.5	1		
CCC(=O)OCC1C=C(C)C=CC(=O)C(C)CC(CC=O)C(OC2OC(C)C(OC3CC(C)(O)C(OC(=O)CC)C(C)O3)C(N(C)C)C2O)C(C)C(OC(=O)CC)CC(=O)OC1CC (stereo not shown) [Compound 10, 3,23,4"-Tri-O-Propionyl-DMT]	> 150	13	1	0.78	0.39	1.56	≤ 0.05	25	50	1.56	0.25	2	0.5	0.125	1	1	1	0.5	1		
CCC1OC(=O)CC(O)C(C)C(OC2OC(C)C(OC3CC(C)(O)C(OC(=O)C(Cl)(Cl)Cl)C(C)O3)C(N(C)C)C2OC(C)=O)C(CC=O)CC(C)C(=O)C=CC(C)=CC1COC(=O)C(Cl)(Cl)Cl (stereo not shown) [Compound 11, 2'-O-acetyl-23,4"-di-O-trichloroacetyl-DMT]			8								2	4	4	0.25	2	4	4	4	8	16	MIC (minimal inhibitory concentration) [14]: 32
CCC1OC(=O)CC(OC(=O)C(Cl)(Cl)Cl)C(C)C(OC2OC(C)C(OC3CC(C)(O)C(O)C(C)O3)C(N(C)C)C2OC(C)=O)C(CC=O)CC(C)C(=O)C=CC(C)=CC1COC(=O)C(Cl)(Cl)Cl (stereo not shown) [Compound 12, 2'-O-acetyl-3,23-di-O-trichloroacetyl-DMT]			2								0.5	2	1	0.125	1	2	2	1	2	16	MIC (minimal inhibitory concentration) [14]: 32
CCC(=O)OC1C(C)OC(OC2C(C)OC(OC3C(CC=O)CC(C)C(=O)C=CC(C)=CC(C)C(CC)OC(=O)CC(O)C3C)C(OC(C)=O)C2N(C)C)CC1(C)O (stereo not shown) [Compound 22, 2'-O-Acetyl-4"-O-Propionyl-DMOT]	91	> 30	0.5	1.56	0.78	3.12	0.195	25	25	1.56	0.25	1	0.25	0.125	0.5	0.5	0.5	0.5	0.5		
CCC(=O)OC1CC(=O)OC(CC)C(C)C=C(C)C=CC(=O)C(C)CC(CC=O)C(OC2OC(C)C(OC3CC(C)(O)C(OC(=O)CC)C(C)O3)C(N(C)C)C2OC(C)=O)C1C (stereo not shown) [Compound 23, 2'-O-Acetyl-3,4"-Di-O-Propionyl-DMOT]	> 100	> 30	1	1.56	3.12	1.56	0.39	50	> 50	1.56	0.5	1	0.5	0.06	0.5	1	1	0.5	1		
